Experiment [1] concerns the target T1, 17β-hydroxysteroid dehydrogenase 2 (17β-HSD2) (Homo sapiens, UniProt P37059).
T1 construct: gene HSD17B2
T1 sequence (P37059 1-387): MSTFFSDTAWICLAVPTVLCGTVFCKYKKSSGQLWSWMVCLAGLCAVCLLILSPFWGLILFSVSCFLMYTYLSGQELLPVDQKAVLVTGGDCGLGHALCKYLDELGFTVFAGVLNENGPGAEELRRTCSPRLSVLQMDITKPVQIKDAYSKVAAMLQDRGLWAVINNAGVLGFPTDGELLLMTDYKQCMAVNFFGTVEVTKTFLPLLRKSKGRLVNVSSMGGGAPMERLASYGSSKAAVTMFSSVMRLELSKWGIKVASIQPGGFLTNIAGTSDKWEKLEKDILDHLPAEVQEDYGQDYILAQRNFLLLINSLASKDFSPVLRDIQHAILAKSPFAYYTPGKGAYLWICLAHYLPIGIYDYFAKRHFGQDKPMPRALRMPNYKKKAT
The experiment can be described thus: radiolabeled estradiol to estrone conversion in lysates of HEK-293 cells transfected with human […]β-HSD2. The class given is biochemical.

The target of experiment [2] is T1, 17β-hydroxysteroid dehydrogenase 2 (17β-HSD2). The experiment can be described thus: biochemical. Also noted: species or system HEK-293 (transiently transfected); Radiolabeled estradiol to estrone conversion (200 nM, NAD+) in lysates of 17β-HSD2-transfected cells; TLC and scintillation counting. Here is the method:
Lysate activity assays were performed as previously described. Briefly, HEK-293 cells (ATCC) were transiently transfected with expression constructs for human 17β-HSD1 or 17β-HSD2 using the calcium phosphate precipitation method. Lysates of HEK-293 cells expressing 17β-HSD1 or 17β-HSD2 were incubated at 37 °C for 10 min in TS2 buffer (100 mM NaCl, 1 mM EDTA, 1 mM EGTA, 250 mM sucrose, 1 mM MgCl2, 20 mM Tris-HCl, pH 7.4), containing either the inhibitor at the respective concentration or solvent (0.2% DMSO). 17β-HSD1 activity was determined in the presence of 200 nM estrone, including 50 nCi of [2,4,6,7-^3H]-estrone and 500 μM NADPH. Whereas, the 17β-HSD2 activity was performed in the presence of 200 nM estrone, including 50 nCi of [2,4,6,7-^3H]-estradiol and 500 μM NAD+.  Figure 4 (A) Inhibition of estrone formation by parabens in human embryonic kidney (HEK-293) cell lysates expressing human 17β-HSD2. The conversion of estradiol to estrone was measured in lysates of HEK-293 cells transiently transfected with 17β-HSD2 in the presence of 200 nM radiolabeled estradiol and parabens or paraben-like compounds at a final concentration of 20 µM. 17β-HSD2 inhibitor BM13 served as positive control (compound 22 in [18]). Statistical analyses were performed using one-way analysis of variance (ANOVA) test followed by a Dunnett post-hoc test. […] (B) Concentration-dependent inhibition of 17β-HSD2 by ethylparaben and ethyl vanillate. Results represent the mean ± standard deviation (SD) of three independent measurements. To determine 17β-HSD1 activity in COV434 cells, cells were seeded (50,000) into 96-well plates and incubated for 90 min with 200 nM estrone, including 50 nCi of [2,4,6,7-^3H]-estrone in serum-free charcoal treated media containing either the inhibitor at the respective concentration or solvent (0.1% DMSO). Both activity essays were stopped by adding a 1:1 ratio of 2 mM unlabeled estrone and estradiol in methanol. Radiolabeled steroids were obtained from Perkin-Elmer (Boston, MA, USA) whereas normal steroids and cofactors were purchased from Sigma-Aldrich. Estrogens were separated by thin layer chromatography and samples were analyzed using scintillation counting. All data were collected from at least three independent measurements.

Experiment [3] addresses T2, 17β-hydroxysteroid dehydrogenase 1 (17β-HSD1) (Homo sapiens, UniProt P14061).
T2 construct: gene HSD17B1
T2 sequence (P14061 2-328): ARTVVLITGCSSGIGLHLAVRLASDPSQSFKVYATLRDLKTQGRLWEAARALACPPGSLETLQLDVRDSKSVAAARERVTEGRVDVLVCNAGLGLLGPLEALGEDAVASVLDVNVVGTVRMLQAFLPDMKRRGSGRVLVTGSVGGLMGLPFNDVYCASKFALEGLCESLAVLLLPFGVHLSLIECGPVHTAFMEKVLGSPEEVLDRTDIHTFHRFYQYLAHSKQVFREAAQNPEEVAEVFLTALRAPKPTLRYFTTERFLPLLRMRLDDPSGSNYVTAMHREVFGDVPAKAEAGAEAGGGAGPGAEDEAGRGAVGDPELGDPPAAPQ
The experiment can be described thus: biochemical. Also noted: species or system HEK-293 (transiently transfected); Radiolabeled estrone to estradiol conversion (200 nM, NADPH) in lysates of 17β-HSD1-transfected cells; TLC and scintillation counting. Here is the method:
Lysate activity assays were performed as previously described. Briefly, HEK-293 cells (ATCC) were transiently transfected with expression constructs for human 17β-HSD1 or 17β-HSD2 using the calcium phosphate precipitation method. Lysates of HEK-293 cells expressing 17β-HSD1 or 17β-HSD2 were incubated at 37 °C for 10 min in TS2 buffer (100 mM NaCl, 1 mM EDTA, 1 mM EGTA, 250 mM sucrose, 1 mM MgCl2, 20 mM Tris-HCl, pH 7.4), containing either the inhibitor at the respective concentration or solvent (0.2% DMSO). 17β-HSD1 activity was determined in the presence of 200 nM estrone, including 50 nCi of [2,4,6,7-^3H]-estrone and 500 μM NADPH. Whereas, the 17β-HSD2 activity was performed in the presence of 200 nM estrone, including 50 nCi of [2,4,6,7-^3H]-estradiol and 500 μM NAD+.  Figure 6 (A) Inhibition of 17β-HSD1 activity by parabens. 17β-HSD1 activity was measured in lysates of transiently-transfected HEK-293 cells, using DMSO as a negative, and apigenin as a positive, control. Statistical analyses were performed using one-way ANOVA followed by a Dunnett post-hoc test. […] (B) Concentration-dependent inhibition of 17β-HSD1 by [compound left out]- and heptylparaben. The conversion of estrone to estradiol was measured in lysates of HEK-293 cells transfected with 17β-HSD1 and (C) in intact human COV434 granulosa cells endogenously expressing 17β-HSD1. Results represent the mean ± SD of three independent experiments. To determine 17β-HSD1 activity in COV434 cells, cells were seeded (50,000) into 96-well plates and incubated for 90 min with 200 nM estrone, including 50 nCi of [2,4,6,7-^3H]-estrone in serum-free charcoal treated media containing either the inhibitor at the respective concentration or solvent (0.1% DMSO). Both activity essays were stopped by adding a 1:1 ratio of 2 mM unlabeled estrone and estradiol in methanol. Radiolabeled steroids were obtained from Perkin-Elmer (Boston, MA, USA) whereas normal steroids and cofactors were purchased from Sigma-Aldrich. Estrogens were separated by thin layer chromatography and samples were analyzed using scintillation counting. All data were collected from at least three independent measurements.

In experiment [4] the target is T1, 17β-hydroxysteroid dehydrogenase 2 (17β-HSD2). The experiment can be described thus: radiolabeled estradiol conversion in lysates of transfected HEK-293 cells at […]; also significant at […]. It is filed as cell-based. Conditions: HEK293.
The target of experiment [5] is T2, 17β-hydroxysteroid dehydrogenase 1 (17β-HSD1). Briefly: radiolabeled estrone to estradiol conversion in lysates of transfected HEK-293 cells; also intact COV434 cells (IC50 […]). It is filed as biochemical.
The target in experiment [6] is T1, 17β-hydroxysteroid dehydrogenase 2 (17β-HSD2). Briefly: radiolabeled estradiol conversion in lysates of transfected HEK-293 cells, single concentration […]. The class given is cell-based. Conditions: HEK293.
The target of experiment [7] is T2, 17β-hydroxysteroid dehydrogenase 1 (17β-HSD1). The experiment can be described thus: radiolabeled estrone conversion in lysates of transfected HEK-293 cells, single concentration […]. It is filed as cell-based. Conditions: HEK293.
The target is the same in experiment [8]. The experiment can be described thus: radiolabeled estrone to estradiol conversion in lysates of transfected HEK-293 cells; also intact COV434 cells (IC50 […]). The class given is biochemical. The source holds these as a separate data set.

Where two headings read alike, the source gives them in different places.

In general, IC50 refers to the point on the concentration scale where inhibition reaches its midpoint. Read a high IC50 as lower potency. As a reminder, the inhibition is how much of the control response was suppressed. Low readings indicate little suppression, high ones strong suppression. In turn, `CCOC(=O)c1ccc(O)cc1` [2-P, ethylparaben] showed an IC50 in experiment [1] of 4600 nM. Further, the inhibition at 20 µM was 74 ± 4% in experiment [2] and 7 ± 6% in experiment [3].
Consider `CCCCCCOC(=O)c1ccc(O)cc1` [6-P, hexylparaben], for which the values for the inhibition at 20 µM in experiment [4] and in experiment [3] were 58% and 80 ± 5%, respectively. 2600 nM corresponded to half-maximal inhibition in experiment [5] (IC50).
As for `O=C(OCc1ccccc1)c1ccc(O)cc1` [benzylparaben], the inhibition at 20 µM in experiment [6] stood at 64%; in experiment [7], 67%.
On to `CCCCOC(=O)c1ccc(O)cc1` [butylparaben], for which the inhibition at 20 µM was determined as 30 ± 7% in experiment [2] and 52 ± 10% in experiment [3].
The compound `CCOC(=O)c1ccc(O)c(OC)c1` [ethyl vanillate] yielded an IC50 in experiment [1] of 1300 nM.
On to `CCCCCCCOC(=O)c1ccc(O)cc1` [heptylparaben], for which the inhibition at 20 µM in experiment [6] was 76%; in experiment [3], 83 ± 6%. Half-maximal inhibition in experiment [8] (IC50) required 1800 nM.
Regarding `CC(C)COC(=O)c1ccc(O)cc1` [isobutylparaben], the inhibition at 20 µM in experiment [7] was found to be 65%; in experiment [2] it was 53 ± 7%.
Regarding `CC(C)OC(=O)c1ccc(O)cc1` [isopropylparaben], the inhibition at 20 µM in experiment [2] came to 60 ± 1%; in experiment [3] it was 32 ± 9%.
Consider `COC(=O)c1ccc(O)cc1` [methylparaben], for which the inhibition at 20 µM was determined as 50 ± 6% in experiment [2] and 0% in experiment [3].
As to `O=C(O)c1ccc(O)cc1` [p-hydroxybenzoic acid], the values for the inhibition at 20 µM in experiment [2] and in experiment [3] were 0% and 7 ± 11%, respectively.
Turning to `O=C(Oc1ccccc1)c1ccc(O)cc1` [phenylparaben], the figures for the inhibition at 20 µM in experiment [6] and in experiment [3] were 64% and 35 ± 1%, respectively.
Consider `CCCOC(=O)c1ccc(O)cc1` [propylparaben], for which the inhibition at 20 µM in experiment [2] worked out at 37 ± 6%; in experiment [3], 37 ± 5%.

Values taken from article PMC5618656, “Interference of Paraben Compounds with Estrogen Metabolism by Inhibition of 17β-Hydroxysteroid Dehydrogenases” (International Journal of Molecular Sciences, 2017).
